We go through three compounds from paper PMC12091851, “Replacing a Cereblon Ligand by a DDB1 and CUL4 Associated Factor 11 (DCAF11) Recruiter Converts a Selective Histone Deacetylase 6 PROTAC into a Pan‐Degrader” (Chemmedchem, 2025).

Series [1] deals with HDAC. To be noted: cited from earlier work.
Series [2] relates to MM.1S cells. Description: Cell cycle analysis by PI staining and flow cytometry. Format: cell-based, human. The settings on record: 10 μM, 48 h. The method, then:
GraphPad Prism (GraphPad Software). […]
Biotech), resuspended in 1 mL EtOH/D PBS (7/3 v/v), and fixed for 30 min at 4 °C. The samples were rehydrated with DPBS and treated with 5 µg /mL RNAse ( Catalog# EN0531 , ThermoFisher Scientific Inc.) for 15 min at room temperature. The staining was performed with 3 µM propidium iodide (in DPBS) for 15 min at room temperature and analyzed by flow cytometry ( Guava easyCyteTM, Luminex, […]
Lakes, NJ, USA), using the Watson Pragmatic algorithm.[6] GraphPad Prism (GraphPad Software) was used for normalization, statistical analysis, and bar graph creation. Significance testing was performed with a one-way analysis of variance (ANOVA). Dunnett’s post-hoc test was employed to obtain […]
Final DMSO concentration was 0.1%.
Staining was performed with
Fluorescence was measured by flow cytometry (Guava® easyCyteTM, Luminex, Austin, Texas). GraphPad Prism (GraphPad Software) was used for normalization, statistical analysis, and bar graph creation. Significance testing was performed with a one-way analysis of variance (ANOVA).
Subsequently, cells were harvested and […]
After 30 minutes of incubation at […]
Dunnett’s post-hoc test was employed

In series [3] the test system is MDA-MB-231 cells. Description: Clonogenic growth assay. To be noted: 10 μM for 48 h, nine days of growth. Format: cell-based, human. The method, then:
Figure 9 Clonogenic growth assay of DCAF11‐recruiting PROTACs. MDA‐MB‐231 cells were treated with 10 μM of the respective compound or vehicle (DMSO) for 48 hours. (A) Representative images of crystal violet stained colonies after nine days of growth. (B) Quantification of counted colonies, presented as mean ± standard deviation of three biological replicates, each performed in triplicates. Significance of quantification compared to vehicle: ns=p≥0.05; **=p≤0.01 and ***=p≤0.001. […]
Subsequently, cells were harvested and
plated in 6-well plates at a density of 750 cells per well in triplicates. The cell culture medium was
changed after five days. Nine days after plating, the colonies were carefully washed with 500 µL DPBS
and stained with 500 µL crystal violet solution (0.5% in methanol). After 30 minutes of incubation at
room temperature, the wells were gently rinsed with deionized water. After counting the formed
colonies, GraphPad Prism (GraphPad Software) was used for bar graph creation. Significance testing
was performed with a one-way analysis of variance (ANOVA). Dunnett’s post-hoc test was employed
to obtain significance levels of each mean compared to a reference mean value.

Series [4] can be described thus: Aqueous stability assay in DPBS buffer (HPLC). Format: physicochemical. The settings on record: DPBS pH 7.4, 10% DMSO, room temperature, 72 hours. Here is the method: and A6. Compounds were diluted in DPBS buffer (pH = 7.4; final DMSO concentration: 10%) and the remaining compound content was analyzed by HPLC. The peak area at 0 h was used for normalization.
Mean ± standard deviation of n = 2 replicates.
Figure S4. Analysis of time dependent degradation by 1j of HDAC1 (A) and HDAC6 (B) by Simple Western™ immunoassay analysis of MM.1S cell lysates. MM.1S cells were treated with 1j (10 µM) or vehicle (DMSO) for the indicated time period. Quantification of protein levels presented as mean ± standard deviation of n = 3 biological replicates. Si gnificance compared to vehicle: * = p≤0.05 , […]
2.5. Aqueous Stability Assay
For stability testing in aqueous solution, a 10-fold concentrated DMSO solution of the respective compounds was diluted in DPBS to generate a 10 µM concentration (final DMSO content of 10%).
Samples of the aqueous solutions were taken after 0, 24, 48, and 72 h at room temperature and the amounts of the parental compound and potential fragments were monitored by HPLC gradient A (see 3.1 General Information). The peak area of the 0 h sample was used for normalization. All compounds were tested in duplicates and GraphPad Prim was used for evaluation and data visualization.
The cell lysis was performed as descripted in 3.2. Simple Western Immunoassay. […]
Afterwards, proteins were transferred with the Trans -Blot Turbo Transfer System (Catalog# 1704150, Bio-Rad) to Immobilon-FL PVDF membranes (Catalog# IPFL00005, Mill ipore Merck, Burlington, MA, USA) at 1.0 A for 30 min and treated with 5% milk-powder solution for 1 h at room temperature under slight agitation. […] The ChemiDoc XRS+ System (Catalog# 1708265 , Bio-Rad) was used for detection and Image Lab Software 6.1 (Bio-Rad) for quantification. […]
In vitro inhibitory activities against HDAC1, 2 , and 6 were measured using a previously published protocol.[3] In vitro inhibitory activities against HDAC4 were measured using a previously published protocol with slight modifications. […]

The structures appear in SMILES notation.

Consider `O=C(CCCCCCC(=O)N/N=C/c1ccc(OCCOCCOCCn2cc(CNc3cccc4c3C(=O)N(C3CCC(=O)NC3=O)C4=O)nn2)cc1)NO` (centres unmarked) [I], for which the “degraded HDAC isoforms” value in series [1] is recorded as “only HDAC6 was degraded”. As for `Cc1ncsc1-c1ccc([C@@H](C)NC(=O)[C@H]2C[C@H](O)CN2C(=O)[C@H](NC(=O)CCOCCOCCN(CCc2c[nH]c3ccccc23)Cc2ccc(/C=C/C(=O)NO)cc2)C(C)(C)C)cc1` [V], the “degraded HDAC isoforms” value in series [1] was “degraded HDAC3 and 8”.

`O=C(CCCCCCC(=O)Nc1ccccc1)NO` [Vorinostat, vorinostat, reference compound]: the “effect on cell cycle phases” value in series [2] is “stronger effects on the different phases of the cell cycle”. Also, the “reduction of colonies (clonogenic growth)” value in series [3] is “less pronounced and not significant”. Besides, in series [4], the “decomposition / reduction in content in DPBS buffer” value was “remained intact”.
